“Also recorded” adds a separate entry of the source. Like-named read-outs stand apart in the source and are kept apart here.

Assay [1] addresses T1, MMP-9 (Homo sapiens, UniProt P14780).
T1 construct: purchased Sino Biological 10327-HNAH
As to the kind of experiment: MMP-9 inhibition assay (fluorogenic peptide substrate). It is filed as biochemical. As to conditions: for remaining activity at 0.078016 µM: fragment concentration 0.078016 µM; for remaining activity at 0.39008 µM: fragment concentration 0.39008 µM; for remaining activity at 1.9504 µM: fragment concentration 1.9504 µM; for remaining activity at 9.752 µM: fragment concentration 9.752 µM; for remaining activity at 0.08 µM: concentration 0.08 µM; for remaining activity at 0.39 µM: concentration 0.39 µM; for remaining activity at 1.95 µM: concentration 1.95 µM; for remaining activity at 9.75 µM: concentration 9.75 µM; for inhibitory effect: in words; for IC50: mean ± SE, n.d: not detected, Fig. 5e prints no unit, µM, read-out: IC50. A digest of the protocol: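 Human proMMP-2 and proMMP-9 were activated with 1 mM APMA (37 °C, 2 h), then used at 6.5 nM (MMP-2) or 10 nM (MMP-9) in Tris/NaCl/CaCl2/Brij 35 buffer, pH 7.5. Enzyme was preincubated with compound 30 min at RT; 25 μM DNP-Pro-Leu-Gly-Met-Trp-Ser-Arg substrate was added and fluorescence (ex 280/em 360 nm) followed 30 min. IC50 from logistic fits of Vmax.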

The target in assay [2] is T1, MMP-9. As to the kind of experiment: De novo T-DEL selection against MMP-9, NGS decoding. It is filed as binding. As to conditions: for Enrichment Fold / Count: MMP9 selection; for Count: NGS sequence count per Compound ID (Figure 4a). An excerpt:
(§1) Matrix metalloproteinases (MMPs) are zinc-dependent endopeptidases capable of degrading and remodeling extracellular matrix components[46],[47]. They are attractive therapeutic targets as high expression levels were detected in various diseases, such as inflammatory diseases, and at different stages of cancers, including metastasis, invasion, and angiogenesis[47]–[53]. As shown in Supplementary Fig. 3c, we performed selections against the two gelatinases (human MMP-2 and human MMP-9) to identify binding fragments for later design and synthesis of small molecule inhibitors. After selection, the three sub-libraries were decoded, and the enrichment was calculated by dividing the post-selection fraction (count/total counts) by the pre-selection fraction (Fig. 4a and Supplementary Fig. 13).
(§2) 4 µg of MMP-2/MMP-9 was dissolved in 100 µl of selection buffer containing 25 mM Tris-base, 10 mM CaCl2, 150 mM NaCl, 0.05% Tween 20, pH 7.5. 10 µl of 4-Aminophenylmercuric acetate (APMA) (100 mM) solution was added to the protein solution and incubated at 37 °C for 1 h. After activation, the solution was added on top of 40 µl pre-washed Ni-NTA resin and incubated for 30 min on a rotary shaker. The supernatant was discarded, and the resin was washed three times with the selection buffer.
(§3) For each independent selection, three sub-libraries were mixed in the selection buffer with a final concentration of 40 nM of each sub-library in 100 µl. The mixture was heat denatured at 90 °C for 1 min and slowly cooled down to allow the formation of the trio-pharmacophore library. The dynamic dual-pharmacophore DEL was provided by DyNAbind GmbH (Merck, DYNA001).
(§4) The assembled library was incubated with the protein-bound solid support for 2 h at RT on a rotary shaker. In parallel, selection on bare solid support served as the negative control to exclude promiscuous binders on the resin. After panning, the supernatant was discarded, and the resin was washed three times with 1 ml selection buffer. Finally, 100 µl of 50 mM Tris buffer, pH 7.4 was added to resuspend the resin and the resin was incubated at 95 °C for 5 min to denature the protein, release, and collect the bound library members.
(§5) The eluted library members were subjected to sample preparation for NGS. NGS preparation was achieved by two-step PCR. First, the individual selection was indexed using primers containing unique sequences corresponding to each selection. The amplified product was purified from 2% agarose gel. Second, the purified DNA from all selections were pooled in equal amount and subjected to the 2nd PCR step to attach sequences compatible with the NGS flow cell and the sequencing primers. NGS was performed by Novogene UK with Novaseq 6000. Raw data files (fastq files) obtained were decoded using a custom python script and excel. The sequence reads corresponding to each sample was retrieved by searching for the correct index unique to each selection. Then, the code region was extracted from each sequence and assigned to the corresponding identity. The count of each code in each selection sample was obtained by looping through the total reads and counting the occurrence of each code. The enrichment fold of each compound was calculated by first, dividing the count by the total count to get the abundance, second, the abundance after the selection was divided by the abundance of pre-selection to reflect the distribution change of the compound. Next, the enrichment fold was plotted against the count for each member of the library to give the scatter plots as in Fig. 4.

For assay [3], the target named is T1, MMP-9. As to the kind of experiment: Dynamic dual-pharmacophore DEL selection against MMP-9, NGS decoding. It is filed as binding. As to conditions: MMP9 selection.
Source text: as §1, §2, §3, §4, §5

The mark [4] stands for this setting: Figure 5b, read-out: Normalized activity (Mean).
[5] abbreviates: Figure 5b, fragment concentration 48.76 µM, read-out: Normalized activity (Mean).
The mark [6] stands for this setting: Figure 5b, fragment concentration 243.8 µM, read-out: Normalized activity (Mean).
[7] abbreviates: Figure 5b, fragment concentration 1219 µM, read-out: Normalized activity (Mean).
Where [8] appears, read: MMP-9, read-out: Mean (dose-response, Supplementary fig 17).
The mark [9] stands for this setting: MMP-9, read-out: Mean (MMP-9 dose-response, Supplementary fig 15).

T1 sequence (P14780 107-707 limits assumed): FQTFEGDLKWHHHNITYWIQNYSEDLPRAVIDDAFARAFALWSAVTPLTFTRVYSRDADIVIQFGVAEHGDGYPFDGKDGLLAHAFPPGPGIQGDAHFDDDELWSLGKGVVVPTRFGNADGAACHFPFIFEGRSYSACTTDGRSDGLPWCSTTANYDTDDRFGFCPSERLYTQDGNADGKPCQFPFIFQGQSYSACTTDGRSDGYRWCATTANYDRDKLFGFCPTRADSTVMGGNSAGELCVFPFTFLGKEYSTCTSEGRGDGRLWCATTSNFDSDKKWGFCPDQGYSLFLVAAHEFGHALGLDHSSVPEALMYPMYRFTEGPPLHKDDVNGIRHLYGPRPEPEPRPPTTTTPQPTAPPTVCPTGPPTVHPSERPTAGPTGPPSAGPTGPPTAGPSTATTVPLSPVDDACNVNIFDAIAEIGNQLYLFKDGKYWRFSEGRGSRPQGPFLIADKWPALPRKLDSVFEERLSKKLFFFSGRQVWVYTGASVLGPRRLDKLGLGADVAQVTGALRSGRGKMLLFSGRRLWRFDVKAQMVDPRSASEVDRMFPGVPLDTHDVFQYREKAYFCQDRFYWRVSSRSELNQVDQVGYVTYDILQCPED

Take `O=C(O)CNC(=O)NC12CC3CC(CC(C3)C1)C2` [Compound 66]: the remaining activity at 0.078016 µM at MMP-9 [1] (setting [4]) is 96.6%. Moreover, the remaining activity at 0.39008 µM at MMP-9 [1] (setting [4]) was 92.7%. Also, the remaining activity at 1.9504 µM at MMP-9 [1] (setting [4]) was 92.2%. The remaining activity at 9.752 µM at MMP-9 [1] (setting [4]) came out at 92.5%. The remaining activity at 48.76 µM is 86.3% at MMP-9 [1] (setting [5]) and 86.3% on MMP-9 [1] (MMP-9, concentration 48.76 µM, read-out: Mean (dose-response, Supplementary fig 17)). Also, the remaining activity at 243.8 µM at MMP-9 [1] (setting [6]) came out at 85%; at MMP-9 [1] (MMP-9, concentration 243.80 µM, read-out: Mean (dose-response, Supplementary fig 17)) it was 85%. Also, the remaining activity at 1219 µM on MMP-9 [1] (setting [7]) was found to be 74.6%; on MMP-9 [1] (MMP-9, concentration 1219.00 µM, read-out: Mean (dose-response, Supplementary fig 17)), 74.6%. Further, the remaining activity at 0.08 µM at MMP-9 [1] (setting [8]) turned out to be 96.6%. The remaining activity at 0.39 µM on MMP-9 [1] (setting [8]) was found to be 92.7%. For the same compound, the remaining activity at 1.95 µM at MMP-9 [1] (setting [8]) worked out at 92.2%. In addition, the remaining activity at 9.75 µM at MMP-9 [1] (setting [8]) was 92.5%. Further, the inhibitory effect entry at MMP-9 [1] is listed as “No inhibitory effects could be measured; also recorded: did not exhibit meaningful activity”. Also, the “Enrichment Fold” value came out at 2.103 at MMP-9 [2] (sub-library SL-A (Figure 4a)), 0.3958 at MMP-9 [2] (sub-library SL-C (Figure 4a)), 0.3958 on MMP-9 [3] (3L sub-library) and 1.238 on MMP-9 [3] (5L sub-library). For the same compound, the Count at MMP-9 [2] (sub-library SL-A) turned out to be 4968; on MMP-9 [2] (sub-library SL-C), 87; on MMP-9 [3] (3L sub-library, NGS sequence count), 87; on MMP-9 [3] (5L sub-library, NGS sequence count), 2487.
In general, IC50 refers to the concentration at which inhibition is half-maximal. As to `O=C(O)Cn1cnc2c(oc3ccccc32)c1=O` [Compound 182], the remaining activity at 0.062464 µM on MMP-9 [1] (Figure 5b, fragment concentration 0.062464 µM, read-out: Normalized activity (Mean)) came to 93.2%. For the same compound, at MMP-9 [1] (Figure 5b, fragment concentration 0.31232 µM, read-out: Normalized activity (Mean)), the remaining activity at 0.31232 µM was determined as 98.5%. Besides, the remaining activity at 1.5616 µM on MMP-9 [1] (Figure 5b, fragment concentration 1.5616 µM, read-out: Normalized activity (Mean)) was determined as 93.8%. In addition, the remaining activity at 7.808 µM on MMP-9 [1] (Figure 5b, fragment concentration 7.808 µM, read-out: Normalized activity (Mean)) was 101%. Besides, the remaining activity at 39.04 µM worked out at 52.9% on MMP-9 [1] (Figure 5b, fragment concentration 39.04 µM, read-out: Normalized activity (Mean)) and 52.9% on MMP-9 [1] (MMP-9, concentration 39.04 µM, read-out: Mean (MMP-9, Supplementary fig 16)). The remaining activity at 195.2 µM on MMP-9 [1] (Figure 5b, fragment concentration 195.2 µM, read-out: Normalized activity (Mean)) amounted to 20%; at MMP-9 [1] (MMP-9, concentration 195.20 µM, read-out: Mean (MMP-9, Supplementary fig 16)) it was 21%. Further, the remaining activity at 976 µM on MMP-9 [1] (Figure 5b, fragment concentration 976 µM, read-out: Normalized activity (Mean)) is 0%; on MMP-9 [1] (MMP-9, concentration 976.00 µM, read-out: Mean (MMP-9, Supplementary fig 16)), 0%. The remaining activity at 0.06 µM on MMP-9 [1] (MMP-9, concentration 0.06 µM, read-out: Mean (MMP-9, Supplementary fig 16)) amounted to 93.2%. Besides, the remaining activity at 0.31 µM at MMP-9 [1] (MMP-9, concentration 0.31 µM, read-out: Mean (MMP-9, Supplementary fig 16)) came to 98.5%. For the same compound, the remaining activity at 1.56 µM at MMP-9 [1] (MMP-9, concentration 1.56 µM, read-out: Mean (MMP-9, Supplementary fig 16)) was found to be 93.8%. Further, the remaining activity at 7.81 µM on MMP-9 [1] (MMP-9, concentration 7.81 µM, read-out: Mean (MMP-9, Supplementary fig 16)) stood at 101%. In addition, the IC50 at MMP-9 [1] stood at 48.1 µM. At MMP-9 [2] (NGS sequence count per SL-A member, de novo T-DEL selection against MMP-9 (Figure 4a source data)), the “MMP9 SL-A Count” value came out at 5190. The “MMP9 SL-C Count” value at MMP-9 [2] (NGS sequence count per SL-C member, de novo T-DEL selection against MMP-9 (Figure 4a source data)) worked out at 816. Also, the “MMP9 SL-A Enrichment Fold” value at MMP-9 [2] (enrichment fold per SL-A member, de novo T-DEL selection against MMP-9 (Figure 4a source data)) is recorded as 1.432. Besides, at MMP-9 [2] (enrichment fold per SL-C member, de novo T-DEL selection against MMP-9 (Figure 4a source data)), the “MMP9 SL-C Enrichment Fold” value came to 0.7692. The “Enrichment Fold” value on MMP-9 [3] (3L sub-library) came out at 0.7692; at MMP-9 [3] (5L sub-library), 1.565. Besides, the Count at MMP-9 [3] (3L sub-library, sequence count per compound ID) is listed as 816; at MMP-9 [3] (5L sub-library, sequence count per compound ID), 4821.
For the compound `Cc1cc(=O)[nH]c(-n2nc(C)c(CCC(=O)O)c2C)n1` [Compound 693], at MMP-9 [1] (setting [4]), the remaining activity at 0.078016 µM was found to be 99.9%, the remaining activity at 0.39008 µM was determined as 97%, the remaining activity at 1.9504 µM came to 89.6% and the remaining activity at 9.752 µM came out at 87.1%. Also, the remaining activity at 48.76 µM at MMP-9 [1] (setting [5]) was 91%. The remaining activity at 243.8 µM at MMP-9 [1] (setting [6]) was determined as 37.1%. In addition, the remaining activity at 1219 µM on MMP-9 [1] (setting [7]) amounted to 6.67%. Besides, on MMP-9 [1] (setting [9]), the remaining activity at 0.08 µM was found to be 99.9%, the remaining activity at 0.39 µM worked out at 97%, the remaining activity at 1.95 µM amounted to 89.5% and the remaining activity at 9.75 µM amounted to 87.1%. Further, the remaining activity at 48.76 µM on MMP-9 [1] (MMP-9, concentration 48.76 µM, read-out: Mean (MMP-9 dose-response, Supplementary fig 15)) stood at 91%. The remaining activity at 243.8 µM on MMP-9 [1] (MMP-9, concentration 243.80 µM, read-out: Mean (MMP-9 dose-response, Supplementary fig 15)) was found to be 37.1%. At MMP-9 [1] (MMP-9, concentration 1219.00 µM, read-out: Mean (MMP-9 dose-response, Supplementary fig 15)), the remaining activity at 1219 µM turned out to be 6.67%. Moreover, on MMP-9 [1], the inhibitory effect result is given as “high µM range” and the IC50 turned out to be 206 ± 25.4 µM. Also, the “MMP9 SL-A Count” value on MMP-9 [2] (NGS sequence count of sub-library SL-A building block, de novo T-DEL selection against MMP-9) amounted to 8460. Further, at MMP-9 [2] (NGS sequence count of sub-library SL-C building block, de novo T-DEL selection against MMP-9), the “MMP9 SL-C Count” value came to 1032. Moreover, the “MMP9 SL-A Enrichment Fold” value at MMP-9 [2] (sub-library SL-A building block, de novo T-DEL selection against MMP-9) amounted to 3.659. For the same compound, on MMP-9 [2] (sub-library SL-C building block, de novo T-DEL selection against MMP-9), the “MMP9 SL-C Enrichment Fold” value came to 1.167. Also, the “MMP9 3L Enrichment Fold” value on MMP-9 [3] (3L library (Supplementary fig 13)) came to 1.167. Besides, the “MMP9 3L Count” value on MMP-9 [3] (3L library, sequence count (Supplementary fig 13)) turned out to be 1032. Besides, on MMP-9 [3] (5L library (Supplementary fig 13)), the “MMP9 5L Enrichment Fold” value worked out at 4.572. Further, the “MMP9 5L Count” value on MMP-9 [3] (5L library, sequence count (Supplementary fig 13)) stood at 8985.
